# According to patent US4663327A, “1-heteroaryl-4-aryl-pyrazolin-5-ones” (priority 1984, dated 1987):
# Assays:
# [1] = test system: Leptosphaeria nodorum; experiment: Leptosphaeria nodorum test (wheat)/protective; assay type: in vivo; conditions: sprayed, evaluation 10 days after inoculation
# Procedure: Leptosphaeria nodorum test (wheat)/protective Solvent: 100 parts by weight of dimethylformamide Emulsifier: 0.25 parts by weight of alkylaryl polyglycol ether To produce a suitable preparation of active compound, 1 part by weight of active compound is mixed with the stated amounts of solvent and emulsifier, and the concentrate is diluted with water to the desired concentration. To test for protective activity, young plants are sprayed with the preparation of active compound until dew-moist. After the spray coating has dried on, the plants are sprayed with a conidia suspension of Leptosphaeria nodorum. The plants remain for 48 hours in an incubation cabinet at 20° C. and 100% relative atmospheric humidity. The plants are placed in a greenhouse at a temperature of about 15° C. and a relative atmospheric humidity of about 80%. Evaluation is effected 10 days after the inoculation.
# [2] = test system: Pyricularia oryzae; assay type: in vivo; conditions: rice, sprayed, disease infestation 4 days after inoculation
# [3] = test system: Cochliobolus sativus; experiment: Cochliobolus sativus test (barley)/protective; assay type: in vivo; conditions: sprayed, evaluation 7 days after inoculation
# Procedure: Cochliobolus sativus test (barley)/protective Solvent: 100 parts by weight of dimethylformamide Emulsifier: 0.25 parts by weight of alkylaryl polyglycol ether To produce a suitable preparation of active compound, 1 part by weight of active compound is mixed with the stated amounts of solvent and emulsifier, and the concentrate is diluted with water to the desired concentration. To test for protective activity, young plants are sprayed with the preparation of active compound until dew-moist. After the spray coating has dried on, the plants are sprayed with a conidia suspension of Cochliobolus sativus. The plants remain in an incubation cabinet for 48 hours at 20° C. and 100% relative atmospheric humidity. The plants are placed in a greenhouse at a temperature of about 20° C. and a relative atmospheric humidity of about 80%. Evaluation is carried out 7 days after the inoculation.
# [4] = test system: Botrytis cinerea; experiment: Botrytis test (BEAN)/protective; assay type: in vivo; conditions: sprayed, infected spots on leaves evaluated 3 days after inoculation
# Procedure: Botrytis test (BEAN)/protective Solvent: 4.7 parts by weight of acetone Emulsifier: 0.3 parts by weight alkyl aryl polyglycol ether To produce a suitable preparation of active compound, 1 pat by weight of active compound is mixed with the stated amounts of solvent and emulsifier, and the concentrate is diluted with water to the desired concentration. To test for protective activity, young plants are sprayed with the preparation of active compound until dripping wet. After the spray coating has dried on, 2 small pieces of agar covered with Botrytis cinerea are placed on each leaf. The inoculated plants are placed in a darkened humidity chamber at 20° C. 3 days after the inoculation, the size of the infected spots on the leaves is evaluated.
# [5] = test system: Chaetomium globosum; experiment: MIC on fungi in agar; conditions: 336 h
# Procedure: (§1) After storage for 2 weeks at 28° C. and 60 to 70% relative atmospheric humidity, the MIC is determined.
# [6] = test system: Trichoderma viride; experiment: MIC on fungi in agar; conditions: 336 h
# Procedure: as §1
# [7] = test system: Aspergillus niger; experiment: MIC on fungi in agar; conditions: 336 h
# Procedure: as §1
# [8] = test system: Alternaria tenuis; experiment: MIC on fungi in agar; conditions: Alternaria alternata, 336 h
# Procedure: as §1
# [9] = test system: Aureobasidium pullulans; experiment: MIC on fungi in agar; conditions: 336 h
# Procedure: as §1
# [10] = test system: Sclerophoma pityophila; experiment: MIC on fungi in agar; conditions: Sydowia polyspora, 336 h
# Procedure: as §1
# [11] = test system: Coniophora puteana; experiment: MIC on fungi in agar; conditions: 336 h
# Procedure: as §1
# [12] = test system: Lentinus tigrinus; experiment: MIC on fungi in agar; conditions: 336 h
# Procedure: as §1
# [13] = test system: Polyporus versicolor; experiment: MIC on fungi in agar; conditions: Trametes versicolor, 336 h
# Procedure: as §1
# [14] = test system: Penicillium glaucum; experiment: MIC on fungi in agar; conditions: 336 h
# Procedure: as §1
# [15] = test system: Phytophthora infestans; assay type: in vivo; conditions: tomato, sprayed, evaluation 3 days after inoculation
smiles,measurement,setting,value
O=c1c(-c2ccc(SC(F)(F)F)cc2)c[nH]n1-c1ccccn1 [Example 19],protective activity,[1],clearly superior activity compared with the prior art
Cc1ccc(-c2c[nH]n(-c3cc(C)c4ccccc4n3)c2=O)cc1 [Example 68],protective activity,[2],clearly superior activity compared with the prior art
O=c1c(-c2ccc(Cl)cc2Cl)c[nH]n1-c1ccccn1 [Example 12],protective activity,[3],clearly superior activity compared with the prior art
same,protective activity,[4],clearly superior activity compared with the prior art
"O=c1c(-c2ccc(Cl)cc2)c[nH]n1-c1ncccn1 [Example 85, 1-pyrimid-2-yl-4-(4-chlorophenyl)-pyrazolin-5-one]",MIC,[5],1 µg/mL
same,MIC,[6],100 µg/mL
same,MIC,[7],5 µg/mL
same,MIC,[8],50 µg/mL
same,MIC,[9],50 µg/mL
same,MIC,[10],20 µg/mL
same,MIC,[11],3.5 µg/mL
same,MIC,[12],7.5 µg/mL
same,MIC,[13],5 µg/mL
same,MIC,[14],10 µg/mL
O=c1c(-c2ccc(Cl)c(Cl)c2)c[nH]n1-c1ccccn1 [Example 13],protective activity,[15],clearly superior activity compared with the prior art
O=c1c(-c2cccc(OC(F)(F)F)c2)c[nH]n1-c1ncccn1 [Example 92],protective activity,[3],clearly superior activity compared with the prior art
same,protective activity,[15],clearly superior activity compared with the prior art
O=c1c(-c2ccc(C(F)(F)F)cc2)c[nH]n1-c1ncccn1 [Example 100],MIC,[5],1 µg/mL
same,MIC,[6],500 µg/mL
same,protective activity,[3],clearly superior activity compared with the prior art
same,MIC,[7],500 µg/mL
same,MIC,[8],50 µg/mL
same,protective activity,[15],clearly superior activity compared with the prior art
same,MIC,[9],50 µg/mL
same,MIC,[10],20 µg/mL
same,MIC,[11],5 µg/mL
same,MIC,[12],15 µg/mL
same,protective activity,[1],clearly superior activity compared with the prior art
same,MIC,[13],5 µg/mL
same,MIC,[14],10 µg/mL
Cc1ccccc1-c1c[nH]n(-c2ncc(Cl)cn2)c1=O [Example 111],protective activity,[4],clearly superior activity compared with the prior art
O=c1c(-c2ccc(Cl)cc2)c[nH]n1-c1ccccn1 [Example 9],protective activity,[3],clearly superior activity compared with the prior art
same,protective activity,[1],clearly superior activity compared with the prior art
COc1ccccc1-c1c[nH]n(-c2ncccn2)c1=O [Example 90],MIC,[5],15 µg/mL
same,MIC,[6],150 µg/mL
same,MIC,[7],35 µg/mL
same,MIC,[8],75 µg/mL
same,MIC,[9],75 µg/mL
same,MIC,[10],15 µg/mL
same,MIC,[11],5 µg/mL
same,MIC,[12],100 µg/mL
same,MIC,[13],10 µg/mL
same,MIC,[14],35 µg/mL
O=c1c(-c2cccc(C(F)(F)F)c2)c[nH]n1-c1ccccn1 [Example 24],protective activity,[3],clearly superior activity compared with the prior art
same,protective activity,[1],clearly superior activity compared with the prior art
O=c1c(-c2c(F)cccc2Cl)c[nH]n1-c1ncccn1 [Example 87],protective activity,[4],clearly superior activity compared with the prior art
O=c1c(-c2ccc(Cl)c(Cl)c2)c[nH]n1-c1ncccn1 [Example 89],protective activity,[4],clearly superior activity compared with the prior art
O=c1c(-c2cc(C(F)(F)F)cc(C(F)(F)F)c2)c[nH]n1-c1ncccn1 [Example 104],protective activity,[2],clearly superior activity compared with the prior art
O=c1c(-c2cc(C(F)(F)F)ccc2Cl)c[nH]n1-c1ccccn1 [Example 26],protective activity,[3],clearly superior activity compared with the prior art
same,protective activity,[1],clearly superior activity compared with the prior art
Cc1cc(-n2[nH]cc(-c3ccc(C(F)(F)F)cc3)c2=O)nc(C)n1 [Example 122],protective activity,[2],clearly superior activity compared with the prior art
COc1ccc(-c2c[nH]n(-c3ccccn3)c2=O)cc1 [Example 15],MIC,[5],0.5 µg/mL
same,MIC,[6],1000 µg/mL
same,MIC,[7],20 µg/mL
same,MIC,[8],50 µg/mL
same,MIC,[9],50 µg/mL
same,MIC,[10],50 µg/mL
same,MIC,[11],5 µg/mL
same,MIC,[12],50 µg/mL
same,protective activity,[1],clearly superior activity compared with the prior art
same,MIC,[13],20 µg/mL
same,MIC,[14],75 µg/mL
O=c1c(-c2ccc(Cl)cc2Cl)c[nH]n1-c1ncccn1 [Example 88],protective activity,[4],clearly superior activity compared with the prior art
Cc1[nH]n(-c2ncccn2)c(=O)c1-c1ccccc1 [Example 106],protective activity,[1],clearly superior activity compared with the prior art
COc1ccc(-c2c[nH]n(-c3ncccn3)c2=O)cc1 [Example 91],MIC,[5],20 µg/mL
same,MIC,[6],200 µg/mL
same,MIC,[7],50 µg/mL
same,MIC,[8],100 µg/mL
same,MIC,[9],150 µg/mL
same,MIC,[10],15 µg/mL
same,MIC,[11],5 µg/mL
same,MIC,[12],100 µg/mL
same,MIC,[13],20 µg/mL
same,MIC,[14],10 µg/mL
O=c1c(-c2ccccc2Cl)c[nH]n1-c1ncccn1 [Example 84],MIC,[5],1.5 µg/mL
same,MIC,[6],35 µg/mL
same,MIC,[7],10 µg/mL
same,MIC,[8],50 µg/mL
same,MIC,[9],20 µg/mL
same,MIC,[10],10 µg/mL
same,MIC,[11],2 µg/mL
same,MIC,[12],50 µg/mL
same,MIC,[13],35 µg/mL
same,protective activity,[4],clearly superior activity compared with the prior art
same,MIC,[14],20 µg/mL
same,protective activity,[2],clearly superior activity compared with the prior art
O=c1c(-c2ccccc2Cl)c[nH]n1-c1ccccn1 [Example 7],protective activity,[2],clearly superior activity compared with the prior art
O=c1c(-c2ccc(C(F)(F)F)cc2)c[nH]n1-c1ccccn1 [Example 25],protective activity,[2],clearly superior activity compared with the prior art
O=c1c(-c2ccc(OC(F)(F)F)cc2)c[nH]n1-c1ncccn1 [Example 93],protective activity,[15],clearly superior activity compared with the prior art
Cc1cc(-n2[nH]cc(-c3ccc(C(F)(F)F)cc3)c2=O)cc(C)n1 [Example 80],protective activity,[2],clearly superior activity compared with the prior art
O=c1c(-c2cc(C(F)(F)F)cc(C(F)(F)F)c2)c[nH]n1-c1ccccn1 [Example 28],protective activity,[3],clearly superior activity compared with the prior art
same,protective activity,[1],clearly superior activity compared with the prior art
same,protective activity,[2],clearly superior activity compared with the prior art
Cc1ccccc1-c1c[nH]n(-c2ncccn2)c1=O [Example 96],protective activity,[4],clearly superior activity compared with the prior art
O=c1c(-c2ccccc2F)c[nH]n1-c1ccccn1 [Example 5],MIC,[5],0.5 µg/mL
same,MIC,[6],35 µg/mL
same,protective activity,[3],clearly superior activity compared with the prior art
same,MIC,[7],3.5 µg/mL
same,MIC,[8],20 µg/mL
same,MIC,[9],20 µg/mL
same,MIC,[10],15 µg/mL
same,MIC,[11],2 µg/mL
same,MIC,[12],20 µg/mL
same,protective activity,[1],clearly superior activity compared with the prior art
same,MIC,[13],7.5 µg/mL
same,MIC,[14],5 µg/mL
O=c1c(-c2c(F)cccc2Cl)c[nH]n1-c1ccccn1 [Example 11],protective activity,[4],clearly superior activity compared with the prior art
same,protective activity,[2],clearly superior activity compared with the prior art
"O=c1c(-c2ccccc2)c[nH]n1-c1ncccn1 [Example 81, 1-pyrimid-2-yl-4-phenyl-pyrazolin-5-one]",MIC,[5],3.5 µg/mL
same,MIC,[6],75 µg/mL
same,MIC,[7],10 µg/mL
same,MIC,[8],75 µg/mL
same,MIC,[9],50 µg/mL
same,MIC,[10],7.5 µg/mL
same,MIC,[11],0.5 µg/mL
same,MIC,[12],5 µg/mL
same,MIC,[13],2 µg/mL
same,MIC,[14],50 µg/mL
O=c1c(-c2ccccc2Br)c[nH]n1-c1ncccn1 [Example 86],MIC,[5],1 µg/mL
same,MIC,[6],35 µg/mL
same,MIC,[7],10 µg/mL
same,MIC,[8],20 µg/mL
same,MIC,[9],20 µg/mL
same,MIC,[10],10 µg/mL
same,MIC,[11],5 µg/mL
same,MIC,[12],2 µg/mL
same,MIC,[13],2 µg/mL
same,MIC,[14],50 µg/mL
